Test results taken from BindingDB's records for doi:10.1124/jpet.105.087809 (Universit&Aagrove, 2005).
pKi: −log10 of the molar value.

Key:
D(2) dopamine receptor = D(2) dopamine receptor (Rattus norvegicus, UniProt P61169)
[1] = biological target: T1, Alpha-1B adrenergic receptor (Homo sapiens, UniProt P35368)
T1 sequence (P35368 whole entry): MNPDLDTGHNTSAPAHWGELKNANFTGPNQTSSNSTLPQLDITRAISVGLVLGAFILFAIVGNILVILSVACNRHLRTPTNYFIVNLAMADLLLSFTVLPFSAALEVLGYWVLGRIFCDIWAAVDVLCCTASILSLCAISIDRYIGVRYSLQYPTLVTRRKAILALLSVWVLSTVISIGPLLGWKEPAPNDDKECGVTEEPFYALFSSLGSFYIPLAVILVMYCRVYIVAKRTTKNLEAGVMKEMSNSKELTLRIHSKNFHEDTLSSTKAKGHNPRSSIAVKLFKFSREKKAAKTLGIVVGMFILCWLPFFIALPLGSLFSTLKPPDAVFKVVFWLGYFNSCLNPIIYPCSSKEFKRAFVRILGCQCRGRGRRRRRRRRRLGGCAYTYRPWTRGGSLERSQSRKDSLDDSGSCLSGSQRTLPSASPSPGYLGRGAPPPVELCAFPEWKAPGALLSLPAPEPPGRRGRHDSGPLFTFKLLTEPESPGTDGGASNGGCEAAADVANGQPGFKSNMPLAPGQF

[2] = biological target: T2, Alpha-2C adrenergic receptor (Rattus norvegicus, UniProt P22086)
T2 sequence (P22086 whole entry): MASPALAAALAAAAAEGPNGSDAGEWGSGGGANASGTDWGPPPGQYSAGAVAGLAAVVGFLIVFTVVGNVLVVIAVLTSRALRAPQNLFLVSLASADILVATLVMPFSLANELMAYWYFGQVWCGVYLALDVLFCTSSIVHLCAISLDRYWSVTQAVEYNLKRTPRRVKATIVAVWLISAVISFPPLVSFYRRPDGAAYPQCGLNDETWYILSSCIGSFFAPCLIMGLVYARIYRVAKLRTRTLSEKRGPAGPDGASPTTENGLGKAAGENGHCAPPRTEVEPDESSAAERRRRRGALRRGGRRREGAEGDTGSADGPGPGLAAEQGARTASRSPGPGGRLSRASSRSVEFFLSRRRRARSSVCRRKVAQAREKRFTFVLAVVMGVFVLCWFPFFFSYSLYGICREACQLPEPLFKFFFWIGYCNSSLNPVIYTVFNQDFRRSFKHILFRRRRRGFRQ

[3] = biological target: T3, Alpha-1A adrenergic receptor (Homo sapiens, UniProt P35348)
T3 sequence (P35348 whole entry): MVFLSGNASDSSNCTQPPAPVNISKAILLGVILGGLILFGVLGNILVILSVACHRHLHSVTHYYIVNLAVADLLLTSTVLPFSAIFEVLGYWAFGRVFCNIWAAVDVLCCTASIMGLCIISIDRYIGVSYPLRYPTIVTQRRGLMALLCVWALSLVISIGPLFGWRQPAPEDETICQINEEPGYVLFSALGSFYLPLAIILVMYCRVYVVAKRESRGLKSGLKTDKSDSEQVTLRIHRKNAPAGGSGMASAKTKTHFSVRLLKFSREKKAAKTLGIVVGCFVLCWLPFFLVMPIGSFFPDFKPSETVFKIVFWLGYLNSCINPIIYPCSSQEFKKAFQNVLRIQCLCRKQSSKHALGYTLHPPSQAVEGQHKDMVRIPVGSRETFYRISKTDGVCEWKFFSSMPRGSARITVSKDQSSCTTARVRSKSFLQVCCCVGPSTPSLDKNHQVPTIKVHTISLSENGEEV

[4] = biological target: T4, Alpha-1D adrenergic receptor (Homo sapiens, UniProt P25100)
T4 sequence (P25100 whole entry): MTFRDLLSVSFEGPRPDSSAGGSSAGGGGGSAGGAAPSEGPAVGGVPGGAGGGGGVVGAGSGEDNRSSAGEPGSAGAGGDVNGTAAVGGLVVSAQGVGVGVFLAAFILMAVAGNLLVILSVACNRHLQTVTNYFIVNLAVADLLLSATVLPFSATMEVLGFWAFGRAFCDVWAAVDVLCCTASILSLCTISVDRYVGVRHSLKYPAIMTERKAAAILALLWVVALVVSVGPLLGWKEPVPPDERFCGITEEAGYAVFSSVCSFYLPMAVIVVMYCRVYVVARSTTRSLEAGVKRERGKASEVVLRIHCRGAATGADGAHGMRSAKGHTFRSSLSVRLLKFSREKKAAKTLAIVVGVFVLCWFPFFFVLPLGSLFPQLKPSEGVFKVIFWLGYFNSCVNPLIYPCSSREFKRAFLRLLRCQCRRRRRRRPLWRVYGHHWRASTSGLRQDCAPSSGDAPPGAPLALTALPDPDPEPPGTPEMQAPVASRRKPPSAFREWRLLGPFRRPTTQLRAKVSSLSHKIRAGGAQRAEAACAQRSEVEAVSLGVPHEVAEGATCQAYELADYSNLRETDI

[5] = biological target: T5, 5-hydroxytryptamine receptor 1A (Homo sapiens, UniProt P08908)
T5 sequence (P08908 whole entry): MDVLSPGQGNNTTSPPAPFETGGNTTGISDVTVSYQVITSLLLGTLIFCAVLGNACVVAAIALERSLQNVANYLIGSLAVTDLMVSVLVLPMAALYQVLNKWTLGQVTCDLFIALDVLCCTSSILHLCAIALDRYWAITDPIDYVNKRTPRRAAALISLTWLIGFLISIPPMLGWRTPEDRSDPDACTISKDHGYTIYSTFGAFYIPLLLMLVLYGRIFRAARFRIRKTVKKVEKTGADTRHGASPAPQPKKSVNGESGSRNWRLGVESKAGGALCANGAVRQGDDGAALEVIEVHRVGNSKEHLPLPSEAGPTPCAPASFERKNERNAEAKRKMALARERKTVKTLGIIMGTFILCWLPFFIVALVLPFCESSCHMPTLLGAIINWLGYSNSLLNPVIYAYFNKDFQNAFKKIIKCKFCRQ

D(2) dopamine receptor, sequence (P61169 whole entry): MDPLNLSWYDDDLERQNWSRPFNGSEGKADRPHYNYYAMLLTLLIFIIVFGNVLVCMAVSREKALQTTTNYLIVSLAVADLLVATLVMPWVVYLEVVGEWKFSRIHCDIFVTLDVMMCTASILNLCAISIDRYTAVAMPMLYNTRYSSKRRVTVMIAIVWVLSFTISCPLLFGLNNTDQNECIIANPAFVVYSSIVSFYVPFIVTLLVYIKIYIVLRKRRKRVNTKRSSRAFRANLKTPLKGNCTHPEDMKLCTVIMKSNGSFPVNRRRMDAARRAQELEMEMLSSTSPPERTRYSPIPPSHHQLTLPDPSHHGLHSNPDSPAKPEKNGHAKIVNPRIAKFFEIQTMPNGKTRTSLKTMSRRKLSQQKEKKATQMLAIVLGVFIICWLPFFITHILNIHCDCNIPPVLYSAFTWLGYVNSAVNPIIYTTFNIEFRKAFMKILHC

Row | pKi (D(2) dopamine receptor) | pKi [1] | pKi [2] | pKi [3] | pKi [4] | pKi [5] | Compound
1 | 6.06 | – | < 5.00 | – | – | – | COc1ccccc1N1CCN(CCN(C(=O)C2CCCCC2)c2ccccc2[N+](=O)[O-])CC1 [N-[2-[4-(2-methoxyphenyl)-1-piperazinyl]-ethyl]-N-(2-nitrophenyl)cyclohexanecarboxamide]
2 | 6.50 | 8.99 | < 5.00 | 8.29 | 8.38 | 9.05 | COc1ccccc1N1CCN(CCN(C(=O)C2CCCCC2)c2ccccc2OC)CC1 [Rec 27/0074]
3 | 5.32 | 6.19 | < 5.00 | 6.65 | 6.14 | 8.98 | COc1ccc(Br)c(N2CCN(CCN(C(=O)C3CCCCC3)c3ccccc3OC(F)(F)F)CC2)c1 [Rec 27/0224]

Row | Compound | pKi (D(2) dopamine receptor) | pKi [1] | pKi [2] | pKi [3] | pKi [4] | pKi [5]
4 | COc1ccccc1N1CCN(CCN(C(=O)C2CCCCC2)c2ccccn2)CC1 | 6.46 | 6.18 | 5.90 | – | – | –
5 | O=C(CCCN1CCC2(CC1)C(=O)NCN2c1ccccc1)c1ccc(F)cc1 [8-[4-(4-fluorophenyl)-4-oxidanylidene-butyl]-1-phenyl-1,3,8-triazaspiro[4.5]decan-4-one] | – | – | – | 7.69 | 8.08 | –
